Results from patent US10575520B2, “Cyclohexylamine-based compounds and uses thereof” (BOARD OF SUPERVISORS OF LOUISIANA STATE UNIVERSITY AND …, priority 2016, dated 2020).
Where a name gives a salt, the structure may show the parent alone.

How the values were obtained:
[1] = test system: worker C. formosanus termites; experiment: Dose-response feeding assay (termite mortality on treated filter paper); settings: for mortality versus control group: 14 day assay
Excerpt: Worker C. formosanus were collected from Brechtel Park, New Orleans, La. by methods known in the art. Bait crates (open-mesh plastic containers) filled with southern yellow pine or spruce-pine-fir sapwood were arranged into a lattice and buried near a C. formosanus infested tree and collected after 3 to 9 weeks. Termite-containing crates were held in 250-liter plastic garbage cans kept at room temperature (26-28 C) and 70-80% relative humidity with the original food source. Termites were collected from New Orleans on 13 Jun. 2006 (collection group A); 9 Aug. 2006 (collection group B); 1 Mar. 2008 (collection group C); 9 May 2008 (collection group D); 20 May 2008 (collection group E); 20 Mar. 2009 (collection group F); 29 May 2009 (collection group G) and 11 May 2010 (collection group H); 18 Aug. 2012 (collection group I); May 2014 (collection group J); August 2014 (collection group K). The termite collection procedure was tapping infested wood sticks into clean plastic containers where termites were collected on moistened paper towels.
(§1) 2-phospho-myo-inositol (dicyclohexylamine salt), glycerol-3-phosphate (dicyclohexylamine salt), dicyclohexylamine phosphate, monocyclohexylamine phosphate, and neat cyclohexylamine were screened for termiticide activity as follows: test compounds were applied to 42.5 mm×3 μm filter papers, in 60×15 mm plastic Petri dishes, in a solution of 1 mg of test compound per 10 μL of distilled water. Doses of 2.5 mg (160.2 μg/mm^3 of filter paper), 5 mg (320.4 μg/mm^3) 10 mg (640.8 μg/mm^3), and 20 mg (1281.7 μg/mm^3) of 2-phospho-myo-inositol were examined. Following filter paper treatment distilled water was added to bring the total volume applied to the filter papers to 300 μL, using 300 μL of distilled water as control. Cyclohexylamine was applied to the paper diluted in amounts of 300 μL, in concentrations ranging from 0.626 to 10.2 μg/mm^3. To prevent desiccation, approximately 50 μL of distilled water was applied to filter paper throughout the trials every third day, or upon observing that a filter paper disc was relatively dry. To test whether termite mortality was induced by consumption of the cyclohexylamine-treated paper, or whether vapor presence of cyclohexylamine was responsible for the toxicity, we compared addition of cyclohexylamine to both paper and fiberglass filters—the latter of which they will not consume. In addition to pure cyclohexylamine, dicyclohexylamine phosphate and monocyclohexylamine phosphate were tested for toxicity. Dicyclohexylamine phosphate was tested in concentrations ranging from 0.348 to 348 μg/mm^3, and monocyclohexylamine phosphate was tested in concentrations ranging from 2.28 to 228 μg/mm^3. Replicates of twenty worker termites were incubated in the dark in a parafilm-sealed Petri dish at room temperature for 2 weeks. Termite mortality was recorded daily in triplicate experiments. An analysis of variance (ANOVA) (SAS ANOVA procedure) followed by Tukey's Studentized range test was used to evaluate statistical differences among groups (Institute 1989). All mortality data were judged at a=0.05.
(§2) Termites from collection group B were used in the 2-Phospho-Myo-Inositol dose mortality assay. Termites from collection groups C and D were used in both the dicyclohexylamine-2-phophoinositol, and dicylclohexyalmine-glycerol-3-phosphate dose mortality assay. Termites from collection group I were used in cyclohexylamine dose mortality assays. Termites from collection […] in the dicyclohexylamine phosphate and neat cyclohexylamine volatility dose mortality assays. Termites from collection group K were used in the monocyclohexylamine phosphate dose mortality assay.

[2] = test system: C. formosanus hindgut protozoan populations; experiment: Protozoan counting, total hindgut protozoa; format: in vivo, Coptotermes formosanus; settings: 640.8 μg/mm^3, 14 day assay
Procedure: (§3) The effect of 2-phospho-myo-inositol dicyclohexylamine salt on C. formosanus hindgut protozoan populations was examined as follows: Ten mg of 2-phospho-myo-inositol were dissolved in 200 μL of distilled water and applied to filter paper, in a 60×15 mm plastic Petri dish, (640.8 μg/mm^3). Control filter paper received 200 μL of distilled water. With 75 worker termites per dish, collection group A were used. Pseudotrichonyrnpha grassii Koidzumi, Holornastigotoides hartmanni Koidzumi and Spirotrichonympha leidyi Koidzumi were counted daily for 2 week as described in Mannesmann, R., Z. Angew. Entomol. 72: 116-128 (1972); and modified by Maiastrello, L., et al., Pest Manag. Sci. 59: 58-68 (2002). Hindguts were removed from the posterior ends of three workers and gently macerated in 40 μL saline solution containing neutral red dye (0.5 mL of 1% aqueous neutral red solution dissolved in 10 mL saline solution). The number of each protozoan species was determined using a hemocytometer (Bright-line Improved Neubauer, Hausser Scientific, Horsham, Pa.) under a light microscope. The population of each protozoan species per hindgut (XF) was calculated as: XF=(G×n)/(V×3), where G=volume (μL) of solution hindguts dissected in; n=mean of two counts within hemocytometer; V=volume (μL) of area counted. Mean (±SE) XF values calculated from two replicates were used for graphical comparison of data. […]

[3] = test system: Spirotrichonympha leidyi Koidzumi; experiment: Protozoan counting, S. leidyi; format: in vivo; settings: 640.8 μg/mm^3, 14 day assay
Procedure: as §3

[4] = test system: Pseudotrichonyrnpha grassii Koidzumi; experiment: Protozoan counting, P. grassii; format: in vivo; settings: 640.8 μg/mm^3, 14 day assay
Procedure: as §3

[5] = test system: worker termites (C. formosanus) antennae; experiment: Termite antenna ablative shortening (antenna length quantification); format: in vivo, Coptotermes formosanus; settings: 640.8 μg/mm^3, 14 day assay
Procedure: Fifty worker termites, from collection group B, were placed in a 60×15 mm polystyrene petri dish with 42.5 mm filter paper treated with 10 mg of 2-phospho-myo-inositol (640.8 μg/mm^3). Daily for 14 day three randomly selected termites were removed, euthanized with 5 μL of ethanol and their antennae were photographed, after which, GSA image analyzer was used to quantify the length of the termite antennae (Bansemer and Scheel 2010). Antenna length data were subjected to ANOVA followed by Tukey's Studentized range test (Institute 1989). All data were judged at α=0.05. All experiments were performed in triplicate.

[6] = test system: Holornastigotoides hartmanni Koidzumi; experiment: Protozoan counting, H. hartmanni; format: in vivo; settings: 640.8 μg/mm^3, 14 day assay
Procedure: as §3

[7] = test system: worker C. formosanus termites; experiment: Cellulose (filter paper) consumption; format: in vivo, Coptotermes formosanus
Procedure: In dose mortality experiments where paper consumption data are shown, filter papers were weighed in ambient humidity prior to sugar application. After 14 days termites were removed from the dishes and the filter paper from each replicate was cleaned, washed of residual carbohydrate and dried at 100 C for 24 h. After drying and humidity equilibration for 24 h, filter papers were reweighed for determination of paper consumption. […] All consumption data were judged at a=0.05.

[8] = test system: worker C. formosanus termites; experiment: Cyclohexylamine volatile effects (cellulose paper vs fiberglass filter mortality); settings: 600 μg
Procedure: as §1, §2

`O=P(O)(O)OC1[C@@H](O)[C@H](O)C(O)[C@H](O)[C@H]1O` (stereo partly drawn) [2-Phospho-Myo-Inositol, 2-phospho-myo-inositol (di-cyclohexylamine salt)] was tested, and the “mortality versus control group” value ([1]; 160.2 μg/mm^3 filter paper) was “did not result in mortality significantly different from the control group”, the “mortality versus control group” value ([1]; 320.4 μg/mm^3 filter paper) was “did not result in mortality significantly different from the control group” and the “mortality versus control group” value ([1]; 640.8 μg/mm^3 filter paper) was “did not result in mortality significantly different from the control group”. For the same molecule, the “day on which mortality became significant” value ([1]; 1281.7 μg/mm^3) was “eight”, the mortality ([1]; 1281.7 μg/mm^3, day 14) was 98% and the mortality ([1]; 1281.7 μg/mm^3, day eight) was “Forty three”. The “total protozoan populations versus control” value [2] was “reduced total protozoan populations day four and thereafter”, the “S. leidyi populations versus control” value [3] was “significantly lower than controls on day nine and 11” and the “P. grassii populations versus control” value [4] was “significantly lowered on day one, five, eight, nine, 10 and 11”. The “termite antennae length versus control” value [5] was “significantly reduced termite antennae of day five and six and eight through 14” and the “H. hartmanni populations versus control” value [6] was “significantly reduced on day one, two, five, eight, nine, 10, 11 and 14”.

In the case of `NC1CCCCC1` [Neat Cyclohexylamine, cyclohexylamine], the mortality versus control ([1]; 0.62 μg/mm^3) is reported as “only the highest dosage group, 2.51 μg/mm^3, displayed significantly different mortality”, the mortality versus control ([1]; 0.82 μg/mm^3) is reported as “only the highest dosage group, 2.51 μg/mm^3, displayed significantly different mortality” and the mortality versus control ([1]; 1.0 μg/mm^3 (lowest dosage of 1.0, 1.7, 2.4)) is reported as “Only the two highest dosage groups displayed mortality significantly different from the control”. The mortality versus control ([1]; 1.25 μg/mm^3) was “only the highest dosage group, 2.51 μg/mm^3, displayed significantly different mortality”, the “day on which mortality became significant” value ([1]; 1.7 μg/mm^3) was “eight” and the mortality ([1]; 1.7 μg/mm^3, day 14) was 33%. The “day on which mortality became significant” value ([1]; 2.4 μg/mm^3) was “five”, the mortality ([1]; 2.4 μg/mm^3, day 14) was 41% and the “day on which mortality became significantly different” value ([1]; 2.51 μg/mm^3) was “six”. The mortality ([1]; 2.51 μg/mm^3, day 14) was 63%, the mortality ([1]; 2.51 μg/mm^3, day six) was 16% and the mortality ([1]; 3.39 μg/mm^3, day three) was 100%. The mortality ([1]; 5.08 μg/mm^3, within one to three days) was 100%, the mortality ([1]; 10.2 μg/mm^3, day one) was 100% and the “consumption rate per termite versus control” value ([7]; 0.626 μg/mm^3, 14 days) was “did not result in a consumption rate per termite significantly different from the control group”. For the same molecule, the “consumption rate (per surviving termites) versus control” value ([7]; 0.822 μg/mm^3, 14 days) was “significantly lower than the control group”, the “consumption rate (per surviving termites) versus control” value ([7]; 1.253 μg/mm^3, 14 days) was “significantly lower than the control group” and the “consumption rate (per surviving termites) versus control” value ([7]; 2.510 μg/mm^3, 14 days) was “significantly lower than the control group”. The “day on which mortality became significantly different” value ([8]; treatment of cellulose) was “eight”, the mortality ([8]; treatment of cellulose, day 14) was 45% and the mortality ([8]; treatment of cellulose, day eight) was 25%. For the same molecule, the “mortality versus corresponding control group” value ([8]; treatment of fiberglass) was “did not result in mortality significantly different than that of the corresponding control group”.
